In patent US20260015311A1, “AMINO LIPID COMPOUND, PREPARATION METHOD THEREFOR, AND USE THEREOF” (SHENZHEN SHENXIN BIOTECHNOLOGY CO., LTD., priority 2022, published 2026):
Like-named read-outs stand apart in the source and are kept apart here.

What was measured:
liver = assay: Targeting assay, fluorescence in liver after intramuscular injection; type: in vivo, mice; details: 15 μg mRNA per animal, 6 h after injection, dissected liver
Experimental: The lipids were mixed with DSPC, CHO-HP, M-DMG2000 (i.e. PEG2000-DMG) in a molar ratio of 50:10:38.5:1.5 and dissolved in absolute ethanol. mRNA was dissolved in a sodium acetate solution (0.2M, pH=5.0). The samples of various prescriptions were prepared at a water phase:alcohol phase=9 ml/min: 3 ml/min by using a microfluidic equipment (MPE-L2) and a chip (SN.000035). The two phases were mixed by injecting them into the microfluidic chip according to the interface requirements, and then the drug solution was loaded into a 100KD dialysis bags, immersed in a beaker containing 1 L dialysis solution and wrapped with aluminum foil, and dialyzed at 100 rpm for 1 h at room temperature, and then the dialysis solution was replaced and the dialysis continued for 1 h.
Formulation of dialysis solution: 1×PBS+8% sucrose solution: 2 packets of 1×PBS powder were taken into a beaker, dissolved with 2 L DEPC water, added with 160 g of sucrose additionally, and mixed to obtain the 1×PBS+8% sucrose solution.
The mass ratio of mRNA:Lipids in the obtained lipid nanoparticles were about 1:10.
Fluorescent protein-encoding mRNA-LNP preparations containing Compound (I-6-II), MC3 or SM102, respectively were prepared by using the formulation method of mRNA lipid nanoparticle (LNP) preparations as described above, selecting a fluorescent protein-encoding mRNA as the mRNA and the compound (I-6-II), MC3 or SM102, respectively as the lipid.
Each preparation to be tested was administered to mice by intramuscular injection, with each animal receiving 15 μg mRNA preparation sample. 6 h after sample injection, the mice were anesthetized by isoflurane inhalation, and injected intraperitoneally with 200 μL of D-Luciferin (concentration 10 mg/ml) luciferase development substrate. […] After development of living imaging of the intramuscularly injected animals, they were immediately dissected, followed by observation of the fluorescence in the liver immediately after the dissection.

[1] = Toxicokinetic, plasma concentration of compound I-6-II after empty liposome preparation; type: in vivo, cynomolgus monkeys; details: for half-life / AUC(0-t) / Cmax / Tmax: cynomolgus monkey, plasma, intramuscular
Experimental: 1.9078 g of Compound I-6-II, 0.3985 g of DSPC, 0.7575 g of CHO-HP and 0.1972 g of PEG-DMG (average molecular weight of 2000) were weighed in the molar ratio of 49.5:10:39:1.5, dissolved in absolute ethanol and diluted to 237.5 mL to obtain an alcohol phase. The alcohol phase was mixed and encapsulated by using a microfluidic device (MPE-L^2), with an acetic acid-sodium acetate buffer (0.2 mol/L, pH=5) as the aqueous phase, and a volume ratio of aqueous phase:alcohol phase of 3:1. […]
The animal experiment was set up with a total of 5 groups (5 animals/gender/group), and the groups and the dosages thereof were as follows: negative control group (0 μg compound I-6-II/animal), empty liposome low-dosage group (300 μg compound I-6-II/animal) and empty liposome high-dosage group (1200 μg compound I-6-II/animal). The animals in each group were administered intramuscularly once every 2 weeks for a total of 3 times, i.e., administered on D1, D15 and D29.
Blood samples were collected from animals before and 4 h after the first (D1) and the last (D29) administration in the negative control group; and Blood samples were collected from animals before and 15 min, 1 h, 2 h, 4 h, 8 h, 24 h, 32 h and 48 h after the first (D1) and the last (D29) administration in the empty liposome group. The plasma concentration of compound I-6-II in cynomolgus monkeys was detected to investigate the exposure of compound I-6-II in cynomolgus monkeys after administration in each group of animals.
The main TK parameters of compound I-6-II in animals of the empty liposome low- and high-dosage groups after the first administration (D1) and the last administration (D29) are as shown in Table 7 below.

SD rats = details: Covid-19 S protein mRNA-LNP, 100 μg mRNA/animal, intramuscular once a week for 3 weeks, versus ALC-0315 and SM-102, FIG. 9
[2] = female, im, 300 ug, empty liposome low-dosage group (300 μg compound I-6-II/animal), D 1, female, Mean
[3] = female, im, 300 ug, empty liposome low-dosage group (300 μg compound I-6-II/animal), D 29, female, Mean
[4] = female, im, 1200 ug, empty liposome high-dosage group (1200 μg compound I-6-II/animal), D 1, female, Mean
[5] = female, im, 1200 ug, empty liposome high-dosage group (1200 μg compound I-6-II/animal), D 29, female, Mean
[6] = male, im, 300 ug, empty liposome low-dosage group (300 μg compound I-6-II/animal), D 1, male, Mean
[7] = male, im, 300 ug, empty liposome low-dosage group (300 μg compound I-6-II/animal), D 29, male, Mean
[8] = male, im, 1200 ug, empty liposome high-dosage group (1200 μg compound I-6-II/animal), D 1, male, Mean
[9] = male, im, 1200 ug, empty liposome high-dosage group (1200 μg compound I-6-II/animal), D 29, male, Mean

Q: Which “fluorescence intensity in liver” value (liver) does the source give for `CCCCCCCCCOC(=O)CCCCCCCN(CCCCCCCC(=O)OC(CCCCCCCC)CCCCCCCC)[C@@H]1CCC[C@H](O)C1` [Compound (I-6-II)] here?
A: 2.49E+05

Q: And the accumulation ([1]; after 4 weeks of continuous administration (3 times in total), cynomolgus monkeys)?
A: did not accumulate

Q: And the half-life ([1]; both sexes, cynomolgus monkeys, over the empty liposome groups, read-out: plasma half-life)?
A: 4.68 to 6.45 h

Q: What about the AUC(0-t) [1, 2] of the same compound?
A: 838 ng·h/mL

Q: What about the Cmax [1, 2] of the same compound?
A: 79.1 ng/mL

Q: And the Tmax [1, 2]?
A: 3.2 h

Q: And the half-life ([1]; female, im, 300 ug, empty liposome low-dosage group (300 μg compound I-6-II/animal), D 1, female, Mean, read-out: t1/2 (converted))?
A: 5.28 h

Q: And the AUC(0-t) [1, 3]?
A: 783 ng·h/mL

Q: What about the Cmax [1, 3] of the same compound?
A: 59.3 ng/mL

Q: What about the Tmax [1, 3] of the same compound?
A: 6 h

Q: And the half-life ([1]; female, im, 300 ug, empty liposome low-dosage group (300 μg compound I-6-II/animal), D 29, female, Mean, read-out: t1/2 (converted))?
A: 3.58 h

Q: What about the AUC(0-t) [1, 4] of the same compound?
A: 4570 ng·h/mL

Q: And the Cmax [1, 4]?
A: 334 ng/mL

Q: And the Tmax [1, 4]?
A: 5 h

Q: What about the half-life ([1]; female, im, 1200 ug, empty liposome high-dosage group (1200 μg compound I-6-II/animal), D 1, female, Mean, read-out: t1/2 (converted)) of the same compound?
A: 5.07 h

Q: What about the AUC(0-t) [1, 5] of the same compound?
A: 3090 ng·h/mL

Q: And the Cmax [1, 5]?
A: 194 ng/mL

Q: And the Tmax [1, 5]?
A: 8 h

Q: What about the half-life ([1]; female, im, 1200 ug, empty liposome high-dosage group (1200 μg compound I-6-II/animal), D 29, female, Mean, read-out: t1/2 (converted)) of the same compound?
A: 5.29 h

Q: What about the AUC(0-t) [1, 6] of the same compound?
A: 652 ng·h/mL

Q: And the Cmax [1, 6]?
A: 50.6 ng/mL

Q: What about the Tmax [1, 6] of the same compound?
A: 4.8 h

Q: What about the half-life ([1]; male, im, 300 ug, empty liposome low-dosage group (300 μg compound I-6-II/animal), D 1, male, Mean, read-out: t1/2 (converted)) of the same compound?
A: 5.1 h

Q: And the AUC(0-t) [1, 7]?
A: 623 ng·h/mL

Q: What about the Cmax [1, 7] of the same compound?
A: 42.4 ng/mL

Q: And the Tmax [1, 7]?
A: 7.2 h

Q: What about the half-life ([1]; male, im, 300 ug, empty liposome low-dosage group (300 μg compound I-6-II/animal), D 29, male, Mean, read-out: t1/2 (converted)) of the same compound?
A: 5.59 h

Q: What about the AUC(0-t) [1, 8] of the same compound?
A: 2240 ng·h/mL

Q: What about the Cmax [1, 8] of the same compound?
A: 198 ng/mL

Q: And the Tmax [1, 8]?
A: 3.2 h

Q: What about the half-life ([1]; male, im, 1200 ug, empty liposome high-dosage group (1200 μg compound I-6-II/animal), D 1, male, Mean, read-out: t1/2 (converted)) of the same compound?
A: 6.07 h

Q: What about the AUC(0-t) [1, 9] of the same compound?
A: 2280 ng·h/mL

Q: What about the Cmax [1, 9] of the same compound?
A: 146 ng/mL

Q: What about the Tmax [1, 9] of the same compound?
A: 8 h

Q: What about the half-life ([1]; male, im, 1200 ug, empty liposome high-dosage group (1200 μg compound I-6-II/animal), D 29, male, Mean, read-out: t1/2 (converted)) of the same compound?
A: 6.45 h

Q: What about the moderate claudication (SD rats) of the same compound?
A: significantly reduced or decreased

Q: And the “severe swelling at the injection site” value (SD rats)?
A: significantly reduced or decreased
